# Experimental data as given in BindingDB's records for doi:10.1016/0960-894X(95)00404-H (1995).
# Assay: Binding affinity to protein phosphatase, calcineurin (CN) was determined
row,Kd,SMILES
1,20 nM,C=CC[C@@H]1/C=C(\C)C[C@H](C)C[C@H](OC)[C@H]2O[C@@](O)(C(=O)C(=O)N3CCCC[C@H]3C(=O)O[C@H](/C(C)=C/[C@@H]3CC[C@@H](O)[C@H](OC)C3)[C@H](C)[C@@H](O)CC1=O)[C@H](C)C[C@@H]2OC
2,300 nM,"C=CC[C@@H]1/C=C(\C)C[C@H](C)C[C@H](OC)[C@@H](O)[C@@H](OC)C[C@@H](C)c2ncoc2C(=O)N2CCCC[C@H]2C(=O)O[C@H](/C(C)=C/[C@@H]2CC[C@@H](O)[C@H](OC)C2)[C@H](C)C(O)CC1=O (stereo partly drawn) [(E)-18-Allyl-11,21-dihydroxy-23-[(E)-2-((R)-4-hydroxy-3-methoxy-cyclohexyl)-1-methyl-vinyl]-10,12-dimethoxy-8,14,16,22-tetramethyl-4,24-dioxa-1,6-diaza-tricyclo[24.4.0.0*3,7*]triaconta-3(7),5,16-triene-2,19,25-]"
3,350 nM,"C=CC[C@@H]1/C=C(\C)C[C@H](C)C[C@H](OC)[C@@H](O)[C@@H](OC)C[C@@H](C)CC(=O)C(=O)N2CCCC[C@H]2C(=O)O[C@H](/C(C)=C/[C@@H]2CC[C@@H](O)[C@H](OC)C2)[C@H](C)[C@@H](O)CC1=O [18-(E)-allyl-11,21-Dihydroxy-23-[2-((R)-4-hydroxy-3-methoxy-cyclohexyl)-1-methyl-vinyl]-10,12-dimethoxy-8,14,16,22-pentamethyl-1,3,4,7,8,9,10,11,12,13,14,15,18,20,21,22,23,25a-octadecahydro-2H-24-oxa-4a-aza-benzocyclotricosene-5,6,19,25-tetraone]"
4,> 1000 nM,"CCCC1C(=O)CC[C@@H](C)[C@@H](CCc2cccnc2)OC(=O)[C@@H]2CCCN(C2)C(=O)C(=O)CSCC[C@@H](OC)C[C@@H](C)CC(=O)N1C (stereo partly drawn) [(8S,10R,18R,19R,22R)-8-Methoxy-10,13,18-trimethyl-14-propyl-19-(2-pyridin-3-yl-ethyl)-20-oxa-5-thia-1,13-diaza-bicyclo[20.3.1]hexacosane-2,3,12,15,21-pentaone]"
5,> 1000 nM,"CCC(C)C1C(=O)CC[C@@H](C)[C@@H](CCc2cccnc2)OC(=O)[C@@H]2CCCN(C2)C(=O)C(=O)CCSCC[C@@H](OC)C[C@@H](C)CC(=O)N1C (stereo partly drawn) [(9S,11R,19R,20R,23R)-15-sec-Butyl-9-methoxy-11,14,19-trimethyl-20-(2-pyridin-3-yl-ethyl)-21-oxa-6-thia-1,14-diaza-bicyclo[21.3.1]heptacosane-2,3,13,16,22-pentaone]"
6,> 1000 nM,"CCCC1C(=O)CC[C@@H](C)[C@@H](CCc2cccnc2)OC(=O)[C@@H]2CCCN(C2)C(=O)C(O)CC[S+]([O-])CC[C@@H](OC)C[C@@H](C)CC(=O)N1C (stereo partly drawn) [(9S,11R,19R,20R,23R)-3-Hydroxy-9-methoxy-11,14,19-trimethyl-6-oxo-15-propyl-20-(2-pyridin-3-yl-ethyl)-21-oxa-6lambda*4*-thia-1,14-diaza-bicyclo[21.3.1]heptacosane-2,13,16,22-tetraone]"
